Laboratory results reported in ChEMBL document CHEMBL1201862, “PubChem BioAssay data set” (2004).
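A five-concentration, 48-hour dose response in 96-well plates underlies each endpoint, interpolated linearly between surrounding concentrations. At the GI50, growth is halved.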 Active and inactive are the calls of the source. No stated cut-off is given here; in the data, active = GI50 up to about 1.1 µM and inactive = higher.

Assays:
Test in all cases: DTP human tumour cell line panel, 48 h
K562 = system: K562
DU-145 = system: DU-145
SR = system: SR
SF-268 = system: SF-268
HL-60 = system: HL-60
PC-3 = system: PC-3
NCI/ADR-RES = system: NCI/ADR-RES
MDA-MB-435 = system: MDA-MB-435
SW-620 = system: SW-620
A549 = system: A549
SNB-75 = system: SNB-75
NCI-H460 = system: NCI-H460
UACC-62 = system: UACC-62
SK-MEL-28 = system: SK-MEL-28
SF-539 = system: SF-539
RXF 393 = system: RXF 393
IGROV-1 = system: IGROV-1
MOLT-4 = system: MOLT-4
SNB-19 = system: SNB-19
BT-549 = system: BT-549

Measured: GI50

N[C@H]1CCC[C@@H](O)C1O (stereo partly drawn)
inactive: K562 > 100 µM | DU-145 > 100 µM | SR > 100 µM | SF-268 > 100 µM | HL-60 > 100 µM | PC-3 > 100 µM | NCI/ADR-RES > 100 µM | MDA-MB-435 > 100 µM | SW-620 > 100 µM | A549 > 100 µM | SNB-75 > 100 µM | NCI-H460 > 100 µM | UACC-62 > 100 µM | SK-MEL-28 > 100 µM

O=C(Nc1nc2ccccc2n1Cc1ccccc1)NC12CC3CC(CC(C3)C1)C2
inactive: K562 > 100 µM | SR 80.2 µM | SF-539 36 µM | SF-268 14.4 µM | HL-60 > 100 µM | SW-620 > 100 µM | RXF 393 19.5 µM | IGROV-1 75.3 µM | MOLT-4 > 100 µM | A549 71.9 µM | SNB-75 22.4 µM | NCI-H460 41 µM | UACC-62 41.9 µM | SNB-19 44.1 µM | SK-MEL-28 79.3 µM

Clc1ccc(C2=NCON=C2c2ccc(Cl)cc2)cc1
inactive: K562 23.9 µM | DU-145 30.5 µM | BT-549 19.5 µM | SF-539 15.3 µM | SF-268 19.7 µM | HL-60 14.5 µM | PC-3 18.2 µM | NCI/ADR-RES 21.5 µM | SW-620 19.9 µM | RXF 393 18.7 µM | MOLT-4 15.9 µM | A549 31.3 µM | SNB-75 24.8 µM | NCI-H460 19.7 µM | UACC-62 18.9 µM | SNB-19 28 µM

Cc1ccsc1/C=N/Nc1ncccn1
inactive: K562 > 100 µM | DU-145 > 100 µM | BT-549 > 100 µM | SF-268 > 100 µM | HL-60 > 100 µM | PC-3 > 100 µM | NCI/ADR-RES > 100 µM | MDA-MB-435 > 100 µM | SW-620 > 100 µM | RXF 393 > 100 µM | IGROV-1 > 100 µM | MOLT-4 > 100 µM | A549 > 100 µM | SNB-75 > 100 µM | UACC-62 > 100 µM | SNB-19 > 100 µM | SK-MEL-28 > 100 µM

CC(C)(C)OC(=O)c1cccnc1/C=N/O
inactive: K562 > 100 µM | SR > 100 µM | SF-539 > 100 µM | SF-268 > 100 µM | HL-60 > 100 µM | SW-620 58.6 µM | RXF 393 > 100 µM | IGROV-1 > 100 µM | MOLT-4 68.2 µM | A549 > 100 µM | SNB-75 > 100 µM | NCI-H460 48.4 µM | UACC-62 > 100 µM | SNB-19 > 100 µM | SK-MEL-28 > 100 µM

O=c1nc2ccc3sc4ccccc4c(=O)c3n2c(=O)[nH]1
inactive: K562 > 100 µM | DU-145 > 100 µM | SR > 100 µM | SF-539 > 100 µM | SF-268 98.2 µM | HL-60 83.4 µM | PC-3 > 100 µM | NCI/ADR-RES > 100 µM | MDA-MB-435 > 100 µM | SW-620 > 100 µM | RXF 393 > 100 µM | IGROV-1 > 100 µM | MOLT-4 > 100 µM | A549 > 100 µM | SNB-75 > 100 µM | NCI-H460 > 100 µM | SNB-19 > 100 µM | SK-MEL-28 > 100 µM

[N-]=[N+]=Nc1ncnc2c1sc(=S)n2-c1ccccc1
inactive: K562 > 100 µM | SR > 100 µM | SF-539 > 100 µM | SF-268 > 100 µM | HL-60 84.9 µM | SW-620 > 100 µM | RXF 393 > 100 µM | IGROV-1 > 100 µM | MOLT-4 > 100 µM | A549 > 100 µM | SNB-75 > 100 µM | NCI-H460 > 100 µM | UACC-62 > 100 µM | SNB-19 > 100 µM | SK-MEL-28 > 100 µM

COC(=O)C1CCCCCCCCCCC12SCCCS2 (stereo not drawn)
inactive: K562 24.5 µM | DU-145 16.7 µM | SR 11.5 µM | SF-539 25.3 µM | SF-268 23 µM | PC-3 17.5 µM | NCI/ADR-RES 20.7 µM | MDA-MB-435 16.4 µM | SW-620 27.2 µM | RXF 393 19 µM | IGROV-1 17.7 µM | MOLT-4 15.8 µM | A549 17.4 µM | SNB-75 19.1 µM | NCI-H460 37.2 µM | UACC-62 25.6 µM | SNB-19 18.2 µM | SK-MEL-28 18.4 µM

C[N+]1(C)CCC(C#N)(c2ccccc2)CC1
inactive: K562 > 100 µM | DU-145 > 100 µM | SR > 100 µM | SF-268 > 100 µM | HL-60 > 100 µM | NCI/ADR-RES > 100 µM | SW-620 > 100 µM | RXF 393 > 100 µM | IGROV-1 > 100 µM | MOLT-4 > 100 µM | A549 > 100 µM | SNB-75 35.4 µM | NCI-H460 > 100 µM | SNB-19 > 100 µM | SK-MEL-28 > 100 µM

C/C(=N/NC(=S)Nc1cccc(Cl)c1)c1cccc(/C(C)=N\NC(=S)Nc2cccc(Cl)c2)n1
active: BT-549 0.94 µM | SR 0.828 µM | SF-539 0.597 µM | NCI/ADR-RES 1.09 µM
inactive: K562 2.62 µM | HL-60 1.22 µM | PC-3 3.46 µM | MDA-MB-435 6.87 µM | SW-620 3.25 µM | RXF 393 2.38 µM | IGROV-1 2.03 µM | MOLT-4 2.69 µM | A549 2.96 µM | SNB-75 2.58 µM | NCI-H460 2.01 µM | UACC-62 2.1 µM | SNB-19 19.4 µM | SK-MEL-28 > 100 µM

COc1ccccc1-c1cc(=O)c2ccccc2n1C1CC1
inactive: K562 9.68 µM | DU-145 3.5 µM | SR 2.95 µM | SF-539 4.6 µM | SF-268 5.01 µM | HL-60 13.7 µM | PC-3 4.15 µM | NCI/ADR-RES 5.38 µM | MDA-MB-435 3.42 µM | SW-620 3.13 µM | RXF 393 1.84 µM | IGROV-1 4.43 µM | MOLT-4 19.4 µM | A549 2.84 µM | NCI-H460 2.74 µM | UACC-62 2.77 µM | SNB-19 4.86 µM

O=C1NC(c2cccc(OCc3ccccc3)c2)Nc2ccccc21 (stereo not drawn)
active: K562 0.0189 µM | DU-145 0.172 µM | SR < 0.0298 µM | SF-539 0.201 µM | SF-268 0.541 µM | HL-60 < 0.0184 µM | PC-3 0.162 µM | NCI/ADR-RES 0.117 µM | MDA-MB-435 0.023 µM | SW-620 0.0938 µM | RXF 393 0.11 µM | IGROV-1 0.5 µM | MOLT-4 0.23 µM | A549 0.13 µM | SNB-75 0.0703 µM | NCI-H460 0.208 µM | UACC-62 0.495 µM | SNB-19 0.324 µM | SK-MEL-28 0.309 µM

CC(=O)c1[nH]c(NC(C)C)c(C(=S)Nc2ccccc2)c1N
inactive: K562 33.4 µM | DU-145 26.7 µM | BT-549 30.5 µM | SR 23.7 µM | SF-539 > 100 µM | SF-268 25.3 µM | HL-60 51.6 µM | NCI/ADR-RES 68.5 µM | MDA-MB-435 21.7 µM | SW-620 54.1 µM | RXF 393 18.4 µM | IGROV-1 26.4 µM | MOLT-4 37.2 µM | A549 32.3 µM | SNB-75 > 100 µM | NCI-H460 31.8 µM | UACC-62 23.6 µM | SNB-19 27.8 µM | SK-MEL-28 32.4 µM

Cc1[nH]c(C)c(CN(C)C)c1CN(C)C
inactive: K562 > 100 µM | DU-145 > 100 µM | BT-549 > 100 µM | SF-539 > 100 µM | SF-268 > 100 µM | PC-3 > 100 µM | NCI/ADR-RES > 100 µM | MDA-MB-435 > 100 µM | SW-620 > 100 µM | RXF 393 > 100 µM | IGROV-1 > 100 µM | A549 > 100 µM | NCI-H460 > 100 µM | UACC-62 > 100 µM | SNB-19 > 100 µM | SK-MEL-28 > 100 µM

CN(C=O)/C=C/c1cc(O)ccc1O
inactive: K562 24.9 µM | DU-145 33.4 µM | SR 20.5 µM | SF-539 38.3 µM | SF-268 25.8 µM | HL-60 14.2 µM | SW-620 12.8 µM | RXF 393 18 µM | IGROV-1 51.3 µM | MOLT-4 10.8 µM | A549 > 78 µM | SNB-75 21.7 µM | NCI-H460 > 60.7 µM | UACC-62 31.3 µM | SNB-19 > 72.8 µM | SK-MEL-28 > 42.1 µM

Cc1ccc(NC(=O)CCc2n[nH]c(=S)o2)cc1
inactive: K562 44.6 µM | SR > 100 µM | SF-539 > 100 µM | SF-268 > 100 µM | HL-60 > 100 µM | SW-620 > 100 µM | RXF 393 > 100 µM | IGROV-1 > 100 µM | MOLT-4 > 100 µM | A549 > 100 µM | SNB-75 > 100 µM | NCI-H460 > 100 µM | UACC-62 > 86.3 µM | SNB-19 > 100 µM | SK-MEL-28 > 100 µM

CC(=O)c1ccc(NC(=O)C(=O)C(C(=O)/C=C/c2ccccc2)C2OC(=O)c3ccccc32)cc1 (stereo not drawn)
inactive: K562 74.5 µM | SR 60.8 µM | SF-539 > 100 µM | SF-268 > 100 µM | HL-60 > 100 µM | SW-620 > 100 µM | RXF 393 > 100 µM | IGROV-1 > 100 µM | MOLT-4 77.4 µM | A549 > 100 µM | SNB-75 > 100 µM | NCI-H460 > 100 µM | UACC-62 > 100 µM | SNB-19 > 100 µM | SK-MEL-28 > 100 µM
